# Laboratory results from BindingDB's records for doi:10.1016/j.bmcl.2012.03.099 (Rhône-Poulenc Rorer, 2012).
# Target: Mitogen-activated protein kinase 14 (Homo sapiens) (UniProt Q16539)
# Test: Inhibition of p38alpha
# Mitogen-activated protein kinase 14 (Homo sapiens), sequence (Q16539 whole entry, looked up): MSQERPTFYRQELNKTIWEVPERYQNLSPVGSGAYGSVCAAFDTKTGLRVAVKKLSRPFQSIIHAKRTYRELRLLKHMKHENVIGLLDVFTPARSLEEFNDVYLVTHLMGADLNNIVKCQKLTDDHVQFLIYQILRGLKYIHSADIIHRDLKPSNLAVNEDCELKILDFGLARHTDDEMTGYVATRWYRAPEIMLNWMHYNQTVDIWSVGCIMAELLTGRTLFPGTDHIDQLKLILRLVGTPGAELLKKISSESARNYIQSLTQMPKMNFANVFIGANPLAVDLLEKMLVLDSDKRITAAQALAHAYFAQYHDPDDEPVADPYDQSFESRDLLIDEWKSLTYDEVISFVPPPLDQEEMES
row,Structure (SMILES),IC50
1,Cc1ccc(C(=O)NC2CC2)cc1-c1ccn2c(C(C)C)nnc2c1,27 nM
2,Cc1c(F)cc(C(=O)NC2CC2)cc1-c1ccn2c(-c3ccccc3Cl)nnc2c1,1.6 nM
3,Cc1c(F)cc(C(=O)NC2CC2)cc1-c1ccn2c(C(C)(C)NS(C)(=O)=O)nnc2c1,17 nM
4,Cc1ccc(C(=O)NC2CC2)cc1-c1ccn2c(-c3ccccc3Cl)nnc2c1,6.3 nM
5,Cc1ccc(C(=O)NC2CC2)cc1-c1ccn2c(C(F)(F)F)nnc2c1,853 nM
6,Cc1ccc(C(=O)NC2CC2)cc1-c1ccn2c(C(C)(C)C)nnc2c1,16 nM
7,Cc1c(F)cc(C(=O)NC2CC2)cc1-c1ccn2c(-c3ccncc3Cl)nnc2c1,0.83 nM
8,Cc1ccc(C(=O)NC2CC2)cc1-c1c(F)cn2c(C(C)(C)C)nnc2c1F,49 nM
9,Cc1c(F)cc(C(=O)NC2CC2)cc1-c1c(F)cn2c(C(C)(C)N)nnc2c1F,12 nM
10,Cc1c(F)cc(C(=O)NC2CC2)cc1-c1ccn2c(C(C)(C)N(C)C)nnc2c1,1.7 nM
11,Cc1c(F)cc(C(=O)NC2CC2)cc1-c1c(F)cn2c(C(C)(C)C)nnc2c1F,6.2 nM
12,COC(C)(C)c1nnc2cc(-c3cc(C(=O)NC4CC4)cc(F)c3C)ccn12,9.4 nM
13,Cc1c(F)cc(C(=O)NC2CC2)cc1-c1c(F)cn2c(C3CC3)nnc2c1F,10 nM
14,Cc1c(F)cc(C(=O)NC2CC2)cc1-c1ccn2c(C(C)C)nnc2c1,3 nM
15,Cc1ccc(C(=O)NC2CC2)cc1-c1ccn2c(C3CCC3)nnc2c1,20 nM
16,Cc1ccc(C(=O)NC2CC2)cc1-c1ccn2c(C3(C)CC3)nnc2c1,12 nM
17,COC(C)c1nnc2cc(-c3cc(C(=O)NC4CC4)cc(F)c3C)ccn12 (stereo not given),18 nM
18,Cc1c(F)cc(C(=O)NC2CC2)cc1-c1ccn2c(C(N)=O)nnc2c1,102 nM
19,Cc1c(F)cc(C(=O)NC2CC2)cc1-c1ccn2c(C(C)(C)C)nnc2c1,2 nM
20,Cc1c(F)cc(C(=O)NC2CC2)cc1-c1ccn2c(C(C)(C)O)nnc2c1,3.1 nM
21,Cc1c(F)cc(C(=O)NC2CC2)cc1-c1ccn2c(C3CCC3)nnc2c1,1.9 nM

# More lines, in order of falling IC50, values ahead:
row,IC50,Structure (SMILES)
1,253 nM,CC(=O)NC(C)(C)c1nnc2cc(-c3cc(C(=O)NC4CC4)cc(F)c3C)ccn12
2,85 nM,Cc1c(F)cc(C(=O)NC2CC2)cc1-c1ccn2c(C(F)(F)F)nnc2c1
3,62 nM,CC(C)(C)c1nnc2ccc(Sc3ccc(F)cc3F)cn12
4,56 nM,Cc1ccc(C(=O)NC2CC2)cc1-c1ccn2c(C3CCOCC3)nnc2c1
5,43 nM,COC(C)c1nnc2cc(-c3cc(C(=O)NC4CC4)ccc3C)ccn12 (stereo not given)
6,38 nM,Cc1ccc(C(=O)NC2CC2)cc1-c1ccn2c(-c3ccncc3Cl)nnc2c1
7,30 nM,Cc1c(F)cc(C(=O)NC2CC2)cc1-c1ccn2c(C3CCOCC3)nnc2c1
8,23 nM,Cc1c(F)cc(C(=O)NC2CC2)cc1-c1c(F)cn2c(-c3ccncc3Cl)nnc2c1F
9,15.4 nM,Cc1c(F)cc(C(=O)NC2CC2)cc1-c1ccn2c(C(C)(C)N)nnc2c1
10,15 nM,Cc1c(F)cc(C(=O)NC2CC2)cc1-c1c(F)cn2c(C(C)(C)N(C)C)nnc2c1F
11,14 nM,Cc1ccc(C(=O)NC2CC2)cc1-c1ccc2c(N3CCCCC3)noc2c1
12,6.7 nM,Cc1c(F)cc(C(=O)NC2CC2)cc1-c1c(F)cn2c(C(C)C)nnc2c1F
13,6.7 nM,Cc1c(F)cc(C(=O)NC2CC2)cc1-c1ccn2c(C3CC3)nnc2c1
14,0.64 nM,Cc1c(F)cc(C(=O)NC2CC2)cc1-c1ccn2c(C3(C)CC3)nnc2c1
